Here are results for 36 compounds from patent US10316035B2, “Triazolopyridine inhibitors of myeloperoxidase” (BRISTOL-MYERS SQUIBB COMPANY, priority 2015, dated 2019).

The target in the assay is T1, myeloperoxidase (MPO) (Homo sapiens, UniProt P05164).
T1 sequence (P05164 49-745): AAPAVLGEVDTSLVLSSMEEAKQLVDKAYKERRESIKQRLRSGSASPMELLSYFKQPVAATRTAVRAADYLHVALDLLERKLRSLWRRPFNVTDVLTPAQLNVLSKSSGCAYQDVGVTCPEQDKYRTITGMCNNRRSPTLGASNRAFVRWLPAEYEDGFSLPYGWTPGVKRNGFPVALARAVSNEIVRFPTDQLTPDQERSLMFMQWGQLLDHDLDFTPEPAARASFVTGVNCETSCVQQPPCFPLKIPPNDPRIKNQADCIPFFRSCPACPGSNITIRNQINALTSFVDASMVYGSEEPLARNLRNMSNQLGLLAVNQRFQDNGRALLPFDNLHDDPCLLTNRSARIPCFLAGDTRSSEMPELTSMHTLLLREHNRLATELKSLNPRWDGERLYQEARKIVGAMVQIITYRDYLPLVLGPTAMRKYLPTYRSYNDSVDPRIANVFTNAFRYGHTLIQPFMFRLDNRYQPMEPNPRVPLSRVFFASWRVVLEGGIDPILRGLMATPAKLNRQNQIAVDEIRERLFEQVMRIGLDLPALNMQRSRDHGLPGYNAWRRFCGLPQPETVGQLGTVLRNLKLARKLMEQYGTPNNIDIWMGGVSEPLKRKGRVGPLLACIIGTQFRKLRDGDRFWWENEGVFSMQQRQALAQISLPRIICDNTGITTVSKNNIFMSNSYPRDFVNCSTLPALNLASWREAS
Put plainly: MPO peroxidation assay (Amplex Red assay). Format: biochemical. To be noted: MPO peroxidation, potency range class; read-out: Amplex Red IC50. In outline: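 MPO (200 pM) with 40 nM H2O2 was preincubated 10 min at room temperature with inhibitor in 100 mM KPi pH 7.4. A mix of Amplex Red (200 μM) and H2O2 (10 mM) was then added and resorufin fluorescence read kinetically for 15 min. Slopes over 180–540 s gave % inhibition and IC50 via a four-parameter Hill fit.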
By IC50 is commonly meant the midpoint of a concentration-inhibition curve. As to `COc1c(F)cc(F)cc1-c1ccc(COc2cc(N)nc3[nH]nnc23)cc1` [Example 117, 7-((3′,5′-Difluoro-2′-methoxybiphenyl-4-yl)methoxy)-3H-[1,2,3]triazolo[4,5-b]pyridin-5-amine], the half-maximal inhibitory concentration (IC50) lay in the range of 101 to 999 nM.

Consider `COc1cccc(Cl)c1-c1ccc(COc2cc(N)nc3[nH]nnc23)cc1` [Example 118, 7-((2′-Chloro-6′-methoxybiphenyl-4-yl)methoxy)-3H-[1,2,3]triazolo[4,5-b]pyridin-5-amine], for which the half-maximal inhibitory concentration (IC50) was in the range of 1 to 100 nM.

Consider `Nc1cc(OCc2ccc(-c3ccc(OC(F)(F)F)cc3)cc2)c2nn[nH]c2n1` [Example 119, 7-((4′-(Trifluoromethoxy)biphenyl-4-yl)methoxy)-3H-[1,2,3]triazolo[4,5-b]pyridin-5-amine], for which the IC50 lay in the range of 101 to 999 nM.

Consider `Nc1cc(OCc2ccc(-c3cccc(C(F)(F)F)c3)cc2)c2nn[nH]c2n1` [Example 120, 7-((3′-(Trifluoromethyl)biphenyl-4-yl)methoxy)-3H-[1,2,3]triazolo[4,5-b]pyridin-5-amine], for which the IC50 was 101 to 999 nM.

In the case of `Nc1cc(OCc2cccc(-c3cncc(F)c3)c2)c2nn[nH]c2n1` [Example 121, 7-(3-(5-Fluoropyridin-3-yl)benzyloxy)-3H-[1,2,3]triazolo[4,5-b]pyridin-5-amine], the IC50 was 1 to 100 nM.

With `COc1ccc(-c2ccc(COc3cc(N)nc4[nH]nnc34)cc2)cc1` [Example 122, 7-((4′-Methoxybiphenyl-4-yl)methoxy)-3H-[1,2,3]triazolo[4,5-b]pyridin-5-amine], the IC50 was in the range of 1 to 100 nM.

Take `COc1ccccc1-c1ccc(COc2cc(N)nc3[nH]nnc23)cc1` [Example 123, 7-((2′-Methoxybiphenyl-4-yl)methoxy)-3H-[1,2,3]triazolo[4,5-b]pyridin-5-amine]: the IC50 was 1 to 100 nM.

As to `COc1cccc(Cl)c1-c1cccc(COc2cc(N)nc3[nH]nnc23)c1` [Example 124, 7-((2′-Chloro-6′-methoxybiphenyl-3-yl)methoxy)-3H-[1,2,3]triazolo[4,5-b]pyridin-5-amine], the half-inhibitory concentration (IC50) lay within 101 to 999 nM.

As for `COc1ccccc1COc1cc(N)nc2[nH]nnc12` [Example 125], the IC50 is 1 to 100 nM.

For the compound `Nc1cc(OC(c2ccccc2)C(F)(F)F)c2nn[nH]c2n1` (stereo not drawn) [Example 126, 7-(2,2,2-Trifluoro-1-phenylethoxy)-3H-[1,2,3]triazolo[4,5-b]pyridin-5-amine], the IC50 was in the range of 101 to 999 nM.

For the compound `COc1cccc(COc2cc(N)nc3[nH]nnc23)c1` [Example 127, 7-((3-Methoxybenzyl)oxy)-3H-[1,2,3]triazolo[4,5-b]pyridin-5-amine], the IC50 was 101 to 999 nM.

On to `CCOc1ccccc1COc1cc(N)nc2[nH]nnc12` [Example 128, 7-((2-Ethoxybenzyl)oxy)-3H-[1,2,3]triazolo[4,5-b]pyridin-5-amine], for which the IC50 is 1 to 100 nM.

On to `Nc1cc(OCc2cccc(F)c2F)c2nn[nH]c2n1` [Example 129, 7-((2,3-Difluorobenzyl)oxy)-3H-[1,2,3]triazolo[4,5-b]pyridin-5-amine], for which the half-maximal inhibitory concentration (IC50) was in the range of 1 to 100 nM.

Regarding `Nc1cc(OCc2ccc(F)cc2F)c2nn[nH]c2n1` [Example 130, 7-((2,4-Difluorobenzyl)oxy)-3H-[1,2,3]triazolo[4,5-b]pyridin-5-amine], the IC50 lay in the range of 1 to 100 nM.

For `CS(=O)(=O)c1cc(Cl)ccc1COc1cc(N)nc2[nH]nnc12` [Example 131, 7-(4-Chloro-2-(methylsulfonyl)benzyloxy)-3H-[1,2,3]triazolo[4,5-b]pyridin-5-amine], the IC50 lay in the range of 1 to 100 nM.

For the compound `Nc1cc(OCC2CCCCC2)c2nn[nH]c2n1` [Example 132, 7-(Cyclohexylmethoxy)-3H-[1,2,3]triazolo[4,5-b]pyridin-5-amine], the IC50 is 101 to 999 nM.

Turning to `CC(Oc1cc(N)nc2[nH]nnc12)c1ccccc1F` (stereo not drawn) [Example 140, 7-(1-(2-Fluorophenyl)ethoxy)-3H-[1,2,3]triazolo[4,5-b]pyridin-5-amine], the IC50 lay in the range of 101 to 999 nM.

On to `CC(Oc1cc(N)nc2[nH]nnc12)c1ccc(OC(F)(F)F)cc1` (stereo not drawn) [Example 142, 7-(1-(4-(Trifluoromethoxy)phenyl)ethoxy)-3H-[1,2,3]triazolo[4,5-b]pyridin-5-amine], for which the IC50 lay within 1000 to 10000 nM.

On to `CC(Oc1cc(N)nc2[nH]nnc12)c1cccc(OC(F)(F)F)c1` (stereo not drawn) [Example 143, 7-(1-(3-(Trifluoromethoxy)phenyl)ethoxy)-3H-[1,2,3]triazolo[4,5-b]pyridin-5-amine], for which the IC50 lay in the range of 101 to 999 nM.

With `CC(=O)Nc1cccc(C(C)Oc2cc(N)nc3[nH]nnc23)c1` (stereo not drawn) [Example 144, N-(3-(1-(5-Amino-3H-[1,2,3]triazolo[4,5-b]pyridin-7-yloxy)ethyl)phenyl)acetamide], the IC50 lay in the range of 101 to 999 nM.

Consider `CCC(Oc1cc(N)nc2[nH]nnc12)c1ccc(Cl)c(Cl)c1` (stereo not drawn) [Example 145, 7-(1-(3,4-Dichlorophenyl)propoxy)-3H-[1,2,3]triazolo[4,5-b]pyridin-5-amine], for which the IC50 lay in the range of 101 to 999 nM.

Consider `Nc1cc(OCc2ccc3ccccc3c2)c2nn[nH]c2n1` [Example 147, 7-(Naphthalen-2-ylmethoxy)-3H-[1,2,3]triazolo[4,5-b]pyridin-5-amine], for which the IC50 lay in the range of 101 to 999 nM.

As for `Nc1cc(OCc2cccc(Br)c2)c2nn[nH]c2n1` [Example 148, 7-(3-Bromobenzyloxy)-3H-[1,2,3]triazolo[4,5-b]pyridin-5-amine], the IC50 is 1 to 100 nM.

In the case of `Nc1cc(OCc2cc(C(=O)N3CCCC3)ccc2F)c2nn[nH]c2n1` [Example 152, (3-((5-amino-3H-[1,2,3]triazolo[4,5-b]pyridin-7-yloxy)methyl)-4-fluorophenyl)(pyrrolidin-1-yl)methanone], the IC50 fell in the range of 101 to 999 nM.

Regarding `Nc1cc(OCc2cc(C(=O)N3CCC(O)CC3)ccc2F)c2nn[nH]c2n1` [Example 153, (3-((5-amino-3H-[1,2,3]triazolo[4,5-b]pyridin-7-yloxy)methyl)-4-fluorophenyl)(4-hydroxypiperidin-1-yl)methanone], the IC50 fell in the range of 101 to 999 nM.

As for `CN(CCO)C(=O)c1ccc(F)c(COc2cc(N)nc3[nH]nnc23)c1` [Example 154, 3-((5-amino-3H-[1,2,3]triazolo[4,5-b]pyridin-7-yloxy)methyl)-4-fluoro-N-(2-hydroxyethyl)-N-methylbenzamide], the IC50 was 101 to 999 nM.

`Nc1cc(OCc2cc(C(=O)Nc3nnc(C(F)(F)F)s3)ccc2F)c2nn[nH]c2n1` [Example 155, 3-((5-amino-3H-[1,2,3]triazolo[4,5-b]pyridin-7-yloxy)methyl)-4-fluoro-N-(5-(trifluoromethyl)-1,3,4-thiadiazol-2-yl)benzamide]: the concentration for half-maximal inhibition (IC50) is 101 to 999 nM.

Regarding `Nc1cc(OCc2cc(C(=O)NCCCN3CCCC3=O)ccc2F)c2nn[nH]c2n1` [Example 156, 3-((5-amino-3H-[1,2,3]triazolo[4,5-b]pyridin-7-yloxy)methyl)-4-fluoro-N-(3-(2-oxopyrrolidin-1-yl)propyl) benzamide], the IC50 lay within 101 to 999 nM.

Turning to `CC(NC(=O)c1ccc(F)c(COc2cc(N)nc3[nH]nnc23)c1)c1ccccc1` (stereo not drawn) [Example 157, 3-((5-amino-3H-[1,2,3]triazolo[4,5-b]pyridin-7-yloxy)methyl)-4-fluoro-N-(1-phenylethyl)benzamide], the IC50 lay in the range of 1 to 100 nM.

As to `COCCNC(=O)c1ccc(F)c(COc2cc(N)nc3[nH]nnc23)c1` [Example 158, 3-((5-amino-3H-[1,2,3]triazolo[4,5-b]pyridin-7-yloxy)methyl)-4-fluoro-N-(2-methoxyethyl)benzamide], the IC50 is 1 to 100 nM.

For the compound `CN(C(=O)c1ccc(F)c(COc2cc(N)nc3[nH]nnc23)c1)c1ccccc1` [Example 159, 3-((5-amino-3H-[1,2,3]triazolo[4,5-b]pyridin-7-yloxy)methyl)-4-fluoro-N-methyl-N-phenylbenzamide], the IC50 lay in the range of 1 to 100 nM.

Regarding `Nc1cc(OCc2cc(C(=O)NC3(CO)CCCC3)ccc2F)c2nn[nH]c2n1` [Example 160, 3-((5-amino-3H-[1,2,3]triazolo[4,5-b]pyridin-7-yloxy)methyl)-4-fluoro-N-(1-(hydroxymethyl)cyclopentyl) benzamide], the IC50 was in the range of 101 to 999 nM.

For `NC(=O)CNC(=O)c1ccc(F)c(COc2cc(N)nc3[nH]nnc23)c1` [Example 161, N-(2-amino-2-oxoethyl)-3-((5-amino-3H-[1,2,3]triazolo[4,5-b]pyridin-7-yloxy)methyl)-4-fluorobenzamide], the IC50 lay in the range of 1 to 100 nM.

For `Nc1cc(OCc2cc(C(=O)NCC3CC3)ccc2F)c2nn[nH]c2n1` [Example 162, 3-((5-amino-3H-[1,2,3]triazolo[4,5-b]pyridin-7-yloxy)methyl)-N-(cyclopropylmethyl)-4-fluorobenzamide], the IC50 was in the range of 1 to 100 nM.

`Nc1cc(OCc2cc(C(=O)NC3CCC(O)CC3)ccc2F)c2nn[nH]c2n1` (stereo not drawn) [Example 163]: the concentration for half-maximal inhibition (IC50) fell in the range of 101 to 999 nM.

As for `CN1CCC(N(C)C(=O)c2ccc(F)c(COc3cc(N)nc4[nH]nnc34)c2)C1` (stereo not drawn) [Example 164], the IC50 was in the range of 101 to 999 nM.
